# Assay results taken from BindingDB's records for doi:10.7270/Q2F47MKR (Burnham Center For Chemical Genomics, 2010).
# Assay: GPR35 antagonists, SAR follow-up, imaging, image-based, set 2 (AID 2480)
row,SMILES,IC50
1,"CCOC(=O)c1ccc(NC(=O)CCCN2C(=O)/C(=C/c3ccccc3)SC2=S)cc1 [ethyl 4-[4-[(5Z)-5-benzylidene-4-oxo-2-sulfanylidene-1,3-thiazolidin-3-yl]butanoylamino]benzoate]",8.63 µM
2,"COC(=O)CSc1nc2ccc(NC(=O)c3ccccc3C(=O)N3CCOCC3)cc2s1 [methyl 2-[[6-[(2-morpholin-4-ylcarbonylphenyl)carbonylamino]-1,3-benzothiazol-2-yl]sulfanyl]ethanoate]",> 32 µM
